Reference: patent US12304894B2, “Derivatives of adamantyl oxadiazoles and pharmaceutically acceptable solvates, hydrates and salts thereof, pharmaceutical composition comprising same, synthesis method, suitable for use as effective and selective inhibitors of the reductase activity of the enzyme 11-beta dehydrogenase type 1 …” (PONTIFICIA UNIVERSIDAD CATOLICA DE CHILE, priority 2019, dated 2025)

Key:
[1] = test system: Madin-Darby Canine Kidney (MDCK) cells transfected with human P-glycoprotein (hMDR1); details: MDCK-MDR1
Method: Madin-Darby Canine Kidney (MDCK) cells were used in this assay, which are stably transfected with the gene encoding human P-glycoprotein (hMDR1). These cells were cultured in DMEM medium (Dulbecco's Modified Eagle's Medium) high in glucose and supplemented with 10% fetal bovine serum, 1% 5 mM pyruvate, 1% non-essential amino acids solution X5, 20,000 IU/mL of penicillin G and 20,000 IU/mL of streptomycin, a temperature of 37° C., 90% relative humidity and 5% CO2. These cells were seeded in sterile plates on the fourth day of growth or until reaching 90% confluence.
Ten days before carrying out the transport analysis, cells were seeded in Transwells® inserts (1.12 cm2) at a density of 60,000 cells/cm^2. The monolayers were supplemented every two days with fresh culture medium. […] In parallel, B-A experiments were performed (1.5 mL of donor solution in basolateral compartment and 0.5 mL buffer in apical). The monolayers were incubated while stirring (50 rpm) at a temperature of 37° C. for a period of 2 hours. Additionally, this assay was performed in the presence of the Pgp inhibitor elacridar (5 μM). After the stir time, the inserts were removed, the compartments were sampled and the cells were transferred to HPLC vials by diluting these samples with mobile phase chromatography. These samples were kept at −20° C. until their analysis time. […]

11β-HSD2 = 11β-HSD2 oxidase activity in human hepatic microsomes (HTRF Cortisol Kit); format: biochemical; details: remaining activity at 100 nM compound
Method: Determination of 11β-HSD2 Oxidase Activity
The concentration of cortisone produced in the reaction, with and without the compounds, was determined using the Cortisol Kit (Cisbio) product in order to evaluate the 11β-HSD2 oxidase activity.
As in the previous assays, the compounds are reconstituted in DMSO to 10 mM stock, in order to subsequently make serial dilutions to determine the efficacy curve.
To perform the assay, the HTRF plate was prepared containing Tris buffer, 100 nM cortisol and 200 μM NAD^+. Enzyme is added to the corresponding wells in a 4:1 ratio, respectively, and incubated for 2 hours at 37° C. For the kit control, two wells are added only with Tris buffer.
After the incubation time, the reagents of the Cortisol kit, Cortisol d2 and Cortisol cryptate, in a sample ratio, Cortisol d2 and cortisol cryptate 2:1:1 are added. For the negative control, cortisol d2 was replaced in some wells by the kit's reconstitution buffer. The plate was incubated for 1 hour at room temperature to later read at 665 and 620 nm.
For this purpose, the reaction buffer was prepared and subsequently, in a plate for HTRF, the reaction buffer, the microsomes in a concentration of 5 mg/mL and the compound in a ratio of 3:1:1, respectively, were added to each well. In the case of reaction controls, the reaction buffer without cortisol and without compound is included for the negative control. For the positive control, no compound is added, and for the kit controls, only the reaction buffer is added to the negative and positive control wells.
After incubating the plate for 2 hours, the reagents of the cortisol kit, cortisol d2 and cortisol cryptate, are added to the corresponding wells as indicated above. They are then incubated at room temperature for 1 hour to finally read the 665 and 620 nm fluorescence.

[2] = In vivo pharmacokinetics in mice, IV and oral; set-up: species or system male C57BL/6J mice
Method: The animals were classified according to weight and divided into the following groups (Table 7):
20% Kolliphor and 50% PBS at a concentration of 1 mg/mL. From this solution, a 0.4 mg/mL dilution was made for IV administration.
In intravenous (IV) administration, after each compound was administered to the mice, the mice were separated into groups of 3 and were euthanized at times 5, 10, 15, 30, 60, 120, 240, 260, 480 and 1440 minutes. For oral administration (V.O), the mice were separated into groups of 3 and were euthanized at times 15, 30, 60, 120, 240, 260, 480 and 1440 minutes. To obtain zero-time assays, mice were used to which no compound was administered.
Whole blood was obtained from each animal (in microtubes with EDTA); these samples were centrifuged at 9000 g at a temperature of 4° C. for a period of 5 minutes, obtaining the plasma which was stored at −80° C.
In addition, organs such as brain, liver, muscle, epididymal fat, heart and kidney were obtained from the animals, which were frozen in liquid nitrogen and stored at −80° C.
Plasma samples and brain, liver, epididymal fat, and muscle (tissue) samples were analyzed. 2× in volume of water (weight/volume) was added to the tissue samples while 4× in volume of water (weight/volume) was added to the muscle mixture, after which they were homogenized using a Bullet Blender equipment (Next Advance, USA).
All samples were analyzed as a single point by LC-MS/MS in accordance with the analytical methodology already standardized and presented in application example 3.
To begin, a calibration curve was run. For this purpose, the controls, the plasma and organ samples were prepared by adding 180 μL of cold acetonitrile to these, then vortexed for 15 seconds and centrifuged at 6100 g for 30 seconds at 4° C. The supernatant which was obtained from this procedure was diluted in 2 volumes of 0.2% formic acid in water and transferred to a vial that will allow it to be injected into LC-MS/MS.
The conditions for the LC-MS/MS analysis were: • HPLC: Eksigent UltraLC 100 • Autosampler: Eksigent UltraLC 100-XL at RT • Mobile phase: A-0.1% formic acid in water; B-0.1% formic acid in acetonitrile. • Column: YMC Triart 1.9 μm; 2.0×50 mm • Injection volume: 2 μL • Gradient: 5% B for 0.25 min→5-95% B for 0.75 min→95% B for 2 min→95-5% B for 0.25 min→5% B for 0.25 min • Flow: 0.6 mL/min • Mass Spectrometer: Applied Biosystems/SCIEX QTRAP 4500 • Interface: TurbolonSpray (ESI) at 600° C. • Software: Analyst.

[3] = biological target: recombinant 11β-HSD1 enzyme (Homo sapiens (Human), UniProt P28845); assay: 11β-HSD1 oxidase activity (HTRF Cortisol Kit); format: biochemical
recombinant 11β-HSD1 enzyme, sequence (P28845 whole entry): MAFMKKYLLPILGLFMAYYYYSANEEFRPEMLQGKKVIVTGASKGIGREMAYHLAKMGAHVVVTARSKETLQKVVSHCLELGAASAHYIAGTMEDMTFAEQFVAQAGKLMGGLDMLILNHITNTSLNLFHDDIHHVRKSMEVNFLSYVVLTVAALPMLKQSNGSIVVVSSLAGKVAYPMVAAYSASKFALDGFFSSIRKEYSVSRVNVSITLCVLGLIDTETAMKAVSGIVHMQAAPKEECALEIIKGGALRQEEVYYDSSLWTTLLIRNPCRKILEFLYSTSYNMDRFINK
Method: Determination of 11β-HSD1 Oxidase Activity
The Cortisol Kit (Cisbio) product was used for that purpose.
For the analysis, the compounds are reconstituted in DMSO in a stock of 10 mM concentration, from which serial dilutions were prepared for the efficiency curve.
The recombinant 11β-HSD1 enzyme dilutions were prepared in 20 mM Tris Buffer 5 mM EDTA pH 6.0 (Tris buffer).
Initially, the enzyme concentration to be used was determined. For this purpose, a plate for HRTF was prepared with Tris buffer with 100 nM cortisol and 200 μM NADP+, including in the wells of the plate for HTRF together with the enzyme in a 4:1 ratio, respectively, and incubated for 2 hours at 37° C. After this time, the reagents of the Cortisol kit, Cortisol d2 and Cortisol cryptate in sample ratio, Cortisol d2 and cortisol cryptate 2:1:1 were added, incubating this new reaction for 1 hour at room temperature. Subsequently, the fluorescence was determined at 665 and 620 nm.
An HRTF plate was again prepared, where the reaction buffer, the recombinant 11β-HSD1 enzyme and the compound were added in each well in a 3:1:1 ratio, respectively. The plate was incubated at 37° C. for 2 hours. After the incubation time, the reagents of the cortisol kit, cortisol d2 and cortisol cryptate, were added as indicated above. They were then incubated at room temperature for 1 hour to finally read the fluorescence at 665 and 620 nm.

## Cc1cccc(CCc2nc(C34CC5CC(CC(C5)C3)C4)no2)c1 [BD-40, 1-(3-methylphenyl)-2-(3-adamantyl-1,2,4-oxadiazol-5-yl)ethane]
[1]
  Papp compared with high permeability marker minoxidil: higher than those of the high permeability marker minoxidil
11β-HSD2
  11b-HSD2 oxidase (activ rem %) Microcosms 100 nM: 97.9%
[2]; IV, 2 mg/Kg, plasma
  AUCExtr: 5.240%
  AUCInf: 623 ng·h/mL
  AUCfinal: 649 ng·h/mL
  C0/Cmax: 2200 ng/mL
  CL: 3.21 L/h/kg
  MRTInf: 1.46 h
  Vz: 15.30 L/kg
  t1/2: 3.30 h
[2]; PO, dose 3 mg/Kg, plasma
  AUCExtr: 3.6%
  AUCInf: 596 ng·h/mL
  AUCfinal: 575 ng·h/mL
  C0/Cmax: 393 ng/mL
  CL: 16.8 L/h/kg
  F: 19.1%
  Vz: 168 L/kg
  t1/2: 0.538 h
  tmax: 30 min
[2]; administered intravenously, plasma
  mean time (of elimination) of the drug: 3.30 h
[2]; administered orally, plasma
  mean time (of elimination) of the drug: 0.864 h
[2]; oral and intravenous administration
  detection in tissues (brain, liver, fat, muscle): can be detected in the different tissues
[2]; plasma
  bioavailability / apparent availability: good bioavailability
[3]; remaining activity at 100 nM compound
  11b-HSD1 oxidase (activ rem %) 100 nM: 92.1%
[3]; remaining activity at 100 uM compound
  11b-HSD1 oxidase (activ rem %) 100 uM: 89.9%
